# According to PubChem BioAssay AID623907 (NMMLSC, 2012):
# System: mouse and human plasma stability, LC/MS/MS, 180 min
# Test: compound stability in mouse and human plasma, late-stage follow-up, ADME assay for GPR30 and estrogen receptor ligands, biochemical (AID 623907)
# Conditions: at 1 µM, stronger effect = higher value
smiles,measurement,setting,value
COc1cc([N+](=O)[O-])cc2c1NC(C1CC=CCC1)C1CC=CC21 (configuration not stated),percent remaining,,94.5%
same,percent remaining,"measured here: human plasma stability, 180 min",100%
